Source: US7132454B2, “HEXIM1 as a suppressor of HIV replication and cardiac hypertrophy” (Regents of the University of California, priority 2004, dated 2006)

Experiments:
[1] = test system: right ventricular myocytes; test: myocardial infarction model, HMBA by osmotic minipump; ventricular myocyte hypertrophy and action potential; type: in vivo, male Wistar rats
Excerpt: In a method adapted from Perrier et al. (2004), myocardial infarction (MI) is induced in 250 to 280 g male Wistar rats by left coronary artery ligation. Only post-MI hearts that show a transmural scar are used. An osmotic minipump (Alzet 2ML4) is implanted subcutaneously at the time of surgery to deliver varying amounts of HMBA or other HPC. Control animals receive carrier solution only. Cellular responses are examined over time using whole-cell, patch-clamp techniques on right ventricular myocytes. Animals are euthanized 1 and 3 weeks after surgery with intraperitoneal injection of sodium pentobarbital. Ventricular myocytes are isolated enzymatically. Cellular hypertrophy is monitored by 2-photon microscopy (Zeiss LSM 510 NLO) to calculate cell volume and the whole-cell patch-clamp technique is used to measure membrane capacitance, an electrical index of membrane surface area. To measure cell volume, the voltage-sensitive dye 1-(3-sulfonatopropyl)-[…][b-[2-(di-n-butylamino)-6-naphthyl]vinyl]pyridium betaine (di-4-ANEPPS)-loaded cells are illuminated at 840 nm with a mode-locked Ti:sapphire laser (Mira 900, Coherent) and recorded in 3D. Images of spherical beads (Molecular Probes) are recorded under the same conditions to calculate the point spread function. Deconvolution is performed with Huygens (Bitplane AG). […] AP and K^+ are measured. […]

cardiac hypertrophy = test: HMBA infusion in patients having or susceptible to cardiac hypertrophy; type: in vivo; conditions: 24 g/m^2/d in 10-day courses
Method: Genetic testing, and/or ECG and echocardiography are used to diagnose patients susceptible to hypertrophic cardiomyopathy using methods described by Charron et al. (1997 & 2003). For genetic testing, candidate patients are from families involved in genetic studies in whom genetic analyses are performed and the causative mutation identified. Patients are identified as being at risk of inheriting the disease gene, i.e., they have a first-degree relative clinically affected by hypertrophic cardiomyopathy. The major diagnostic criteria for echocardiography are a left ventricular wall thickness >13 mm and, for ECG, abnormal Q waves, left ventricular hypertrophy, and marked ST-T changes. Clinical evaluation is performed, and blood samples are obtained. Using methods adapted from Andreeff et al. (1992), patients diagnosed as having or susceptible to cardiac hypertrophy are given HMBA treatment. A 5% solution of HMBA (NSC-95580) in distilled water is provided in 500-ml infusion bottles (25 g total per bottle). HMBA is administered at a dose of 24 g/m^2/d in 10-day courses, followed by an 18- to 75-day observation period. Plasma levels are determined daily (at 24 hours into the infusion). […] HMBA plasma levels are determined using HPLC.

HSV = conditions: cited from earlier work
HIV = conditions: cited from earlier work
[2] = test system: human vascular smooth muscle cell (VSMC); conditions: cited from earlier work

With CC(=O)NCCCCCCNC(C)=O [HMBA, Hexamethylene bisacetamide] the action potential ([1]; rats after myocardial infarction, 1 and 3 weeks) was “normal action potential”, the cellular hypertrophy ([1]; rats, three weeks after myocardial infarction) was “no signs of cellular hypertrophy” and the “cardiac hypertrophy by morphologic analyses” value (cardiac hypertrophy; certain patients) was “reduces cardiac hypertrophy”. For the same compound, the most prominent toxicity (cardiac hypertrophy; patients) was “thrombocytopenia, generally reversible on cessation of administration”, the “activation of HSV” value (HSV) was “activate viruses” and the “activation of HIV” value (HIV) was “activate viruses”. For the same compound, the VSMC proliferation [2] was “inhibit human vascular smooth muscle cell (VSMC) proliferation”.
